From ChEMBL document CHEMBL1150209, “(-)-Grandisin form Cryptocarya crassinervia” (J Nat Prod, 1991)
In brackets after ≈: the same amount, converted by molar mass.

Key:
HT-29 = assay: Cytotoxicity against human HT-29 cells; type: functional; conditions: read-out: ED50 (the source's name)
MCF7 = assay: Cytotoxicity against human MCF7 cells; type: functional; conditions: read-out: ED50 (the source's name)
[1] = Toxicity against brine shrimp; type: organism-based; conditions: artemia, in vivo
A549 = assay: Cytotoxicity against human A549 cells; type: functional; conditions: read-out: ED50 (the source's name)

`COc1cc([C@@H]2O[C@@H](c3cc(OC)c(OC)c(OC)c3)[C@H](C)[C@H]2C)cc(OC)c1OC` [GRANDISIN] gave an EC50 (HT-29) greater than 10 µg/mL, an EC50 (MCF7) greater than 10 µg/mL and an LC50 [1] of 21 µg/mL (≈ 48.6 µM). It also gave an EC50 (A549) greater than 10 µg/mL.
